Key:
human Kv1.5 = biological target: T1, human Kv1.5 (Homo sapiens, UniProt P22460); assay: Kv1.5 Autopatch Electrophysiology (whole cell patch-clamp); type: cell-based; settings: compound at 1 μM; cells stably transfected with human Kv1.5; room temperature (22-24° C.); voltage step to 0 mV for 1000 ms from -80 mV, total charge
T1 construct: expressed in transfected cells
Protocol: Cells stably transfected with cDNA for human Kv1.5 (in pEF6::VA-His-TOPO) were grown in Dulbecco's Modified Eagle media (DMEM) alpha supplemented with 10% Fetal Calf Serum (FCS), 20 μl/ml penicillin (5000 U/ml) streptomycin (5000 μg/ml), 10 μl/ml [100×] glutamine, and blasticidin (7.5 μg/ml).
The external bathing solution contained (in mM): 150 NaCl, 10 KCl, […], 3 MgCl2, 1 CaCl2, 10 HEPES, pH 7.4. Patch pipettes were filled with an electrode solution of composition (in mM): 160 KCl, 0.5 MgCl2, 10 HEPES, 1 EGTA, pH 7.4 with KOH.
Compounds were dissolved in DMSO (100%) and made up in the external bather at a concentration of 1 μM. All experiments were conducted at room temperature (22-24° C.).
A cell suspension (10 ml), with a density of 100,000 cells/ml, was aliquoted into a 15 ml centrifuge tube and transferred to an incubator (37° C., 5% CO2) for approximately one hour before use. Following 60 min incubation, a tube was taken and centrifuged at 1000 rpm for 4 mins at room temperature. 9.5 ml supernatant was thene discarded, leaving a cell pellet at the bottom of the tube. The pellet was then resuspended using 100 μl of cold (4° C.), filtered (0.22 μm), 0.2% BSA/bather solution (0.02 g BSA/10 ml bather). The bottom of the tube was manually agitated gently until the solution became cloudy with cells. The 100 μl cell resuspension solution was then stored on the bench at 4° C. (using a Peltier-based temperature control device) until used.
A length of capillary glass (1B150F-4, WPI) was dipped into the cell suspension solution, such that ˜3 cm column of fluid was taken up by capillary action. An Ag/AgCl wire was dropped into the non-dipped end of the capillary also. The outside of the solution-filled end of the capillary was then dried and the capillary was loaded into the AutoPatch™.
Borosilicate glass patch pipettes (from 1.5 mm OD, thin-walled filamented, GC150-TF capillary glass, Harvard) were pulled using a DMZ pipette puller (Zeitz Instruments), and were back-filled using the internal pipette solution, being careful that no bubbles remain at the tip or in the body of the pipette. Patch pipettes typically had resistances of 2.3-3.5 MΩ. Once filled, the pipette tip and a proportion of the shaft (˜15 mm) were dipped into Sigmacote (Sigma). The recording pipette was then loaded into the AutoPatch™. Automated patch-clamping was initiated by the operator, but thereafter AutoPatch.exe continued the experiment providing that pre-set conditions and criteria were satisfied.
Whole cell patch-clamp recordings were made using the AutoPatch™ rig, which incorporated an EPC9 amplifier (HEKA, Germany) under control of Pulse software (v8.54, HEKA, Germany), a motion controller with 2 translators (Newport, UK), valve controller (VF1) and a c-level suction device all at room temperature (22-24° C.). This equipment was completely under the control of AutoPatch.exe and operator intervention was only made when there was a requirement to refill the drug reservoirs or to prevent the loss of a cell due to a technical error. Cells with an Rseries greater than 18MΩ were discounted from the experiment.
Qualification stages prior to perfusion and drug application ensured that the observed current met the criteria for the experiment. Only those cells with an IK>[…] were used for experiments. Cells were continuously perfused with external solution at a flow rate of 1.8-2 ml/minute. […] Online analysis of the hKv1.5 current during the application of compounds was performed by the AutoPatch™ software.
Electrophysiology voltage-step protocols and analysis of data was performed as follows. Data was sampled at 5 kHz, and filtered with a −3 dB bandwidth of 2.5 kHz. Cells were held at a voltage of −80 mV. Currents were evoked to a voltage step for 1000 ms in duration at 0 mV every 5 s. Currents were analysed using Pulsefit software (v8.54, HEKA, Germany), with the total charge measured during the whole of the voltage step. […]

T1 sequence (P22460 whole entry): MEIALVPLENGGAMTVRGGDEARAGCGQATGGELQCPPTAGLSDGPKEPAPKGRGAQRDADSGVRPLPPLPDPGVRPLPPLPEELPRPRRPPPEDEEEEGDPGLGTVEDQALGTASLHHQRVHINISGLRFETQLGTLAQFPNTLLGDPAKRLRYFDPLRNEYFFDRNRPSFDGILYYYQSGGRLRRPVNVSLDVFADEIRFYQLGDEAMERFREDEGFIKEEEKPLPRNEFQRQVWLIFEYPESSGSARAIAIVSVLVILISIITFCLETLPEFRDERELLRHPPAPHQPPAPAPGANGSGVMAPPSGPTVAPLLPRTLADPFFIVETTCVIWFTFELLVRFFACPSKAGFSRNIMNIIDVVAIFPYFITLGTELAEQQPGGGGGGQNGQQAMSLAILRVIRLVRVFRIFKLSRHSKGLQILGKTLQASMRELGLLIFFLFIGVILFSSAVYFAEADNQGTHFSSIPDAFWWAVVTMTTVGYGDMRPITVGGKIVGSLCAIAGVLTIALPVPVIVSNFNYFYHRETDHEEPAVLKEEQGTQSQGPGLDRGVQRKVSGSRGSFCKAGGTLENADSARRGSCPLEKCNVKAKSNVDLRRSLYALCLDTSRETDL

Row | Compound | melting point [°C] | inhibition at 1 µM (human Kv1.5) [%] | % Inhibition @1 (μM) (human Kv1.5) [%]
1 | Fc1ccc(-c2coc3ncnc(NCc4ccccn4)c23)cc1 [Example 21, 5-(4-Fluorophenyl)-N-(pyridin-2-ylmethyl)furo[2,3-d]pyrimidin-4-amine] | 162 to 164 | 39.8 | 
2 | c1ccc(-c2coc3ncnc(NCc4ccccn4)c23)cc1 [Example 22, 5-Phenyl-N-(pyridin-2′-ylmethyl)furo[2,3-d]pyrimidin-4-amine] |  |  | 54.00
3 | Clc1ccc(-c2coc3ncnc(NCc4ccccn4)c23)cc1 [Example 23, 5-(4-Chlorophenyl)-N-(pyridin-2′-ylmethyl)furo[2,3-d]pyrimidin-4-amine] |  |  | 83.80
4 | COc1ccc(-c2coc3ncnc(NCc4ccccn4)c23)cc1OC [Example 24, 5-(3,4-Dimethoxyphenyl)-N-(pyridin-2′-ylmethyl)furo[2,3-d]pyrimidin-4-amine] |  |  | 15.81
5 | c1ccc(CNc2ncnc3occ(-c4ccc5c(c4)OCO5)c23)nc1 [Example 25, 5-(1,3-Benzodioxol-5′-yl)-N-(pyridin-2′-ylmethyl)furo[2,3-d]pyrimidin-4-amine] |  |  | 65.17
6 | Cc1oc2ncnc(NCc3ccccn3)c2c1-c1ccccc1 [Example 26, 6-Methyl-5-phenyl-N-(pyridin-2′-ylmethyl)furo[2,3-d]pyrimidin-4-amine] |  |  | 83.00
7 | COCCNc1nc(NCc2ccccn2)c2c(-c3ccccc3)coc2n1 [Example 41, N^2-(2-Methoxyethyl)-5-phenyl-N^4-pyridin-2-ylmethyl-furo[2,3-d]pyrimidine-2,4-diamine] | 96 to 98 | 99 | 
8 | c1ccc(-c2coc3nc(N4CCOCC4)nc(NCc4ccccn4)c23)cc1 [Example 42, (2-Morpholin-4-yl-5-phenyl-furo[2,3-d]pyrimidin-4-yl)-puridin-2-ylmethyl-amine] |  |  | 99.00
9 | OCCN(CCO)c1nc(NCc2ccccn2)c2c(-c3ccccc3)coc2n1 [Example 43, 2-((2-Hydroxyethyl)-{5-Phenyl-4-[(pyridine-2-ylmethyl)-amino]-furo[2,3-d]pyrimidin-2-yl}-amino)-ethanol] |  | 82 | 
10 | OCC(CO)Nc1nc(NCc2ccccn2)c2c(-c3ccccc3)coc2n1 [Example 44, 2-{5-Phenyl-4-[(pyridin-2-ylmethyl)-amino]furo[2,3-d]pyrimidin-2-ylamino}-propane-1,3-diol] |  | 75 | 
11 | OCCN(CCO)c1nc(NCc2ccccn2)c2c(-c3ccc(F)cc3)coc2n1 [Example 45, 2-((2-Hydroxyethyl)-{5-(4-fluorophenyl)-4-[(pyridine-2-ylmethyl)-amino]-furo[2,3-d]pyrimidin-2-yl}-amino)-ethanol] |  | 42 | 
12 | CN(C)c1nc(NCc2ccccn2)c2c(-c3ccccc3)coc2n1 [Example 46, N^2,N^2-Dimethyl-5-phenyl-N^4-pyridin-2-ylmethyl-furo[2,3-d]pyrimidine-2,4-diamine] | 108 to 110 | 99 | 
13 | Cc1cccc(CNc2nc(N(C)C)nc3occ(-c4ccccc4)c23)n1 [Example 47, N^2,N^2-Dimethyl-N^4-(6-methyl-pyridin-2-ylmethyl)-5-phenyl-furo[2,3-d]pyrimidine-2,4-diamine] | 52 to 54 | 98 | 
14 | CN(C)c1nc(NCc2ccco2)c2c(-c3ccccc3)coc2n1 [Example 48, N^4-Furan-2-ylmethyl-N^2,N^2-dimethyl-5-phenyl-furo[2,3-d]pyrimidine-2,4-diamine] |  | 98 | 
15 | Cc1oc2nc(N(C)C)nc(NCc3ccccn3)c2c1-c1ccccc1 [Example 49, 6,N^2,N^2-Trimethyl-5-phenyl-N4-pyridin-2-ylmethyl-furo[2,3-d]pyrimidine-2,4-diamine] |  | 75 | 
16 | Cc1oc2nc(N(C)C)nc(NCc3ccccn3)c2c1-c1ccc(F)cc1 [Example 50, 5-(4-Fluorophenyl)-6,N^2,N^2-trimethyl-N^4-pyridin-2-ylmethyl-furo[2,3-d]pyrimidine-2,4-diamine] | 107 to 109 | 32 | 
17 | COCCOc1nc(NCc2ccccn2)c2c(-c3ccccc3)coc2n1 [Example 51, [2-(2-Methoxyethoxy)-5-phenyl-furo[2,3-d]pyrimidin-4-yl]-pyridin-2-ylmethylamine] | 97 to 99 | 99 | 

Source: US7456187B2, “Furanopyrimidine compounds as potassium ion channel inhibitors” (Xention Limited, priority 2004, dated 2008)
